Assay [1] has as its target T1, 5-hydroxytryptamine receptor 3A (Homo sapiens) (UniProt P46098).
T1 sequence (whole entry): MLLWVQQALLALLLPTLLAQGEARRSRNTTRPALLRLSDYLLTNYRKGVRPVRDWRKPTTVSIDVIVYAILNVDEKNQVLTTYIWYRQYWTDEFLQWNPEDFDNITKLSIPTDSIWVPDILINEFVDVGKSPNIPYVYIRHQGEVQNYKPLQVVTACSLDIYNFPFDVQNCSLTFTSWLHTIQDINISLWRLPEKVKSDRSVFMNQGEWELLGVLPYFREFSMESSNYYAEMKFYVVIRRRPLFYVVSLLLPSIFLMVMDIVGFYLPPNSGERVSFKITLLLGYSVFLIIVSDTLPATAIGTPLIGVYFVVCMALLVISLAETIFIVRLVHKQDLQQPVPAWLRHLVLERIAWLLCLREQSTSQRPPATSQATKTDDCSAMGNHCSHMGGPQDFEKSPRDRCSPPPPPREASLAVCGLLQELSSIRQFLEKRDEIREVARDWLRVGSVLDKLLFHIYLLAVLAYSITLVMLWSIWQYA
The assay can be described thus: Selectivity interaction (Panel of kinases, GPCRs, ion channels and transporters (enzymatic assay)) EUB0000266bCl HTR3A.

Assay [2] addresses Serine/threonine-protein kinase 10 (Homo sapiens) (UniProt O94804). To be noted: at 10 µM.
The target of assay [3] is SRSF protein kinase 2 (Homo sapiens) (UniProt P78362). Description: Selectivity interaction (KinomeScan (DiscoverX)) EUB0000092b SRPK2. The conditions noted are these: at 10 µM.
Chain of SRSF protein kinase 2 (Homo sapiens) (P78362 whole entry, looked up): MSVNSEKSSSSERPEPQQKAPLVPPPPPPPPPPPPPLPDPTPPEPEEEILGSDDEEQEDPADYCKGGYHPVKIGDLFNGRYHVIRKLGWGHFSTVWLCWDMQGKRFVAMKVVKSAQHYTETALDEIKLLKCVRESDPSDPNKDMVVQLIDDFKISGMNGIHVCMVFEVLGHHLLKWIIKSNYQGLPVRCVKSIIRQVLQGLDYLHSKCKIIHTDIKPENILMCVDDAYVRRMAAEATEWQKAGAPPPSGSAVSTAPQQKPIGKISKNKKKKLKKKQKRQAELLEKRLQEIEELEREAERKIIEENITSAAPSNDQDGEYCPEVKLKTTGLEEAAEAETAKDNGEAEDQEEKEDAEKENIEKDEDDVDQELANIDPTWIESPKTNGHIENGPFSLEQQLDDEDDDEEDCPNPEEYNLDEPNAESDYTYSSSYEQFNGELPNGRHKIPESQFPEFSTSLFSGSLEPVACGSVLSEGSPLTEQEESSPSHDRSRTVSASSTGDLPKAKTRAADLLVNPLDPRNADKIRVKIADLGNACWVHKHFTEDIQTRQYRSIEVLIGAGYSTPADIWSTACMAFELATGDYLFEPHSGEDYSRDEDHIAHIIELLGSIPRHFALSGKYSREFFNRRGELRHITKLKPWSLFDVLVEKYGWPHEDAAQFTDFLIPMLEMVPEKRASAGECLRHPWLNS
Assay [4] concerns the target T2, Ephrin type-B receptor 2 (Homo sapiens) (UniProt P29323).
T2 sequence (whole entry): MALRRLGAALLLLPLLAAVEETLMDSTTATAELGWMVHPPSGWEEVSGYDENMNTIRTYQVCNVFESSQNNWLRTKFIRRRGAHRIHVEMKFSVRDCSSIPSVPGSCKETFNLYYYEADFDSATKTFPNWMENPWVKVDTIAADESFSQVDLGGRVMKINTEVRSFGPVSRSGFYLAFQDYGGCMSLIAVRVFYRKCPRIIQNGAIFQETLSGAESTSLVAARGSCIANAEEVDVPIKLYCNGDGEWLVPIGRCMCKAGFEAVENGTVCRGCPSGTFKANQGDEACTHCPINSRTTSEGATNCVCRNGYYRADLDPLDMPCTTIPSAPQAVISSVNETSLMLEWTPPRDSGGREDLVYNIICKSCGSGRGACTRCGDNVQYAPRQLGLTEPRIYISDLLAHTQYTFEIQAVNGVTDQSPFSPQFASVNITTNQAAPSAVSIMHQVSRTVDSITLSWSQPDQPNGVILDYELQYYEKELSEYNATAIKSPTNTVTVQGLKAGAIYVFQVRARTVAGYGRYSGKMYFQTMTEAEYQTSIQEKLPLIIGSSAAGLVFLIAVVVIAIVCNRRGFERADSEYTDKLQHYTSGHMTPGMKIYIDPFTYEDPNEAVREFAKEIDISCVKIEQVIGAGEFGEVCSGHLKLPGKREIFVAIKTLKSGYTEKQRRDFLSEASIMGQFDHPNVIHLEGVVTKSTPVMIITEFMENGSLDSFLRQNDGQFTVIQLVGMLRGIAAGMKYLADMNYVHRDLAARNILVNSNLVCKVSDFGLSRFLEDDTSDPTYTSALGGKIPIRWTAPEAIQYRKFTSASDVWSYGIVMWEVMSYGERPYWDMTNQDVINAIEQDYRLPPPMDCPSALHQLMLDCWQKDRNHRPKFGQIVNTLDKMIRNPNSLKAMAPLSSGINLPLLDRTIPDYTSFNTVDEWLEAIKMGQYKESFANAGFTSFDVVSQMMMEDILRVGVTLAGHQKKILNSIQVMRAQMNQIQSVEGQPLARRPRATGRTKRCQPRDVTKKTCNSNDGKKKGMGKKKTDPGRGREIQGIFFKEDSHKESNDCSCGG
The assay can be described thus: Selectivity interaction (KinomeScan (DiscoverX)) EUB0000655a EPHB2. The conditions noted are these: at 10 µM.

Assay [5] has as its target Serine/threonine-protein kinase PAK 6 (Homo sapiens) (UniProt Q9NQU5). The assay can be described thus: Selectivity interaction (KinomeScan (DiscoverX)) EUB0000695a PAK6. To be noted: at 100 nM.
In assay [6] the target is Tyrosine-protein kinase Lck (Homo sapiens, UniProt P06239). Description: Selectivity interaction (KinomeScan (DiscoverX)) EUB0000695a LCK. The conditions noted are these: at 100 nM.
Chain of Tyrosine-protein kinase Lck (P06239 2-509 limits assumed): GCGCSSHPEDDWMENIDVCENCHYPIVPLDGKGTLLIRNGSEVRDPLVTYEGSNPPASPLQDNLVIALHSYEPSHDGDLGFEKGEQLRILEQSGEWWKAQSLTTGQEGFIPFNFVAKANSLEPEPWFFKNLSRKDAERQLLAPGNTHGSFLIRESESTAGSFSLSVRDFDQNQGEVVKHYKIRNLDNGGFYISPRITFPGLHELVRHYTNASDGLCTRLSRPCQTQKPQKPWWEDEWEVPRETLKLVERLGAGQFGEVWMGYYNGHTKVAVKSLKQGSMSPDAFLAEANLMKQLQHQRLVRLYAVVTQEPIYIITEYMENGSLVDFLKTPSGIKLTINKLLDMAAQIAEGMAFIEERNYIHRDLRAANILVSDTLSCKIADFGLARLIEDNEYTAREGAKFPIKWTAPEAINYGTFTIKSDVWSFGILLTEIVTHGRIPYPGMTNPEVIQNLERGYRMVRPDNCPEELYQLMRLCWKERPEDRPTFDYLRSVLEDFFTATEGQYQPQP
The target in assay [7] is Mitogen-activated protein kinase 9 (Homo sapiens, UniProt P45984). Description: Selectivity interaction (KinomeScan (DiscoverX)) EUB0000045b MAPK9.
Chain of Mitogen-activated protein kinase 9 (P45984 whole entry, looked up): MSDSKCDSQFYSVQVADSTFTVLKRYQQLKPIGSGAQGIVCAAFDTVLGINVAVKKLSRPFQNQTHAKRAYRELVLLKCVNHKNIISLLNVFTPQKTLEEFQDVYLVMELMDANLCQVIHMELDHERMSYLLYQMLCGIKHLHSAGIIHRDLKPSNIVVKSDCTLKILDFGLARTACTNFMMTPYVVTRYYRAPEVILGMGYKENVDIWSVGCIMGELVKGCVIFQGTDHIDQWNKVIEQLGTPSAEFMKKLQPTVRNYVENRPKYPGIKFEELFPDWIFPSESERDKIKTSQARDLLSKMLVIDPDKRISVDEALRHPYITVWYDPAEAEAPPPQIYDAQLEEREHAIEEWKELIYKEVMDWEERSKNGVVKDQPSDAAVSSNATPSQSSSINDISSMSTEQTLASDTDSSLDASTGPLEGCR
For assay [8], the target named is Serine/threonine-protein kinase MARK1 (Homo sapiens) (UniProt Q9P0L2). Description: Selectivity interaction (Kinase panel (Z-LYTE Assay)) EUB0001632a MARK1. The conditions noted are these: at 10 µM.
Assay [9] deals with Calcium/calmodulin-dependent protein kinase type 1D (Homo sapiens) (UniProt Q8IU85). The assay can be described thus: Selectivity interaction (Kinase panel (Invitrogen)) EUB0000639a CAMK1D. The conditions noted are these: at 200 nM.
Chain of Calcium/calmodulin-dependent protein kinase type 1D (Homo sapiens) (Q8IU85 whole entry, looked up): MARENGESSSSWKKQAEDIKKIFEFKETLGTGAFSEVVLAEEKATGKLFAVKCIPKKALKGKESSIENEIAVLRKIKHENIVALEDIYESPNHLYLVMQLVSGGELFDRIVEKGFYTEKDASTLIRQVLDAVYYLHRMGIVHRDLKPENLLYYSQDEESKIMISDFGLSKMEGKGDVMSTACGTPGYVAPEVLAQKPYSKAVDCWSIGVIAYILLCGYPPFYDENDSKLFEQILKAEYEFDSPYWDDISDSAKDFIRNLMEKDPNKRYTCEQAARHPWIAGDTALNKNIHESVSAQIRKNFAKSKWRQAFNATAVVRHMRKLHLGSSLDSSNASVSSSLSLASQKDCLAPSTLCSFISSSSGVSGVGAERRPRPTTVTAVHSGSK
Assay [10] concerns the target T3, Phosphatidylinositol 5-phosphate 4-kinase type-2 gamma (Homo sapiens) (UniProt Q8TBX8).
T3 sequence (whole entry): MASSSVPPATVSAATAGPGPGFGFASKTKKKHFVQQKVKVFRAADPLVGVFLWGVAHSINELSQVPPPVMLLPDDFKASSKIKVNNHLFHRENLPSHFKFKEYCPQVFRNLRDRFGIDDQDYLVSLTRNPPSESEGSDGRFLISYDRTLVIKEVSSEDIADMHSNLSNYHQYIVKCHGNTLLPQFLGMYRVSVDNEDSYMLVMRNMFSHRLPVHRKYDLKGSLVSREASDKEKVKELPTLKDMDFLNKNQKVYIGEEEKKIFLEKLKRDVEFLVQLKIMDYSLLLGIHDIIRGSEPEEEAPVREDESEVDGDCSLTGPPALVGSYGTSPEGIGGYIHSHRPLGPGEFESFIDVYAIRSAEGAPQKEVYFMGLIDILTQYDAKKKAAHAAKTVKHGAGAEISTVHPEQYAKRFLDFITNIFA
Description: Selectivity interaction (ActivX KiNativ screen (kinase selectivity in THP-1 cell lysates)) EUB0000639a PIP4K2C. In kind it is subcellular. To be noted: lysate.

In assay [11] the target is Cyclin-dependent kinase 18 (Homo sapiens) (UniProt Q07002). The assay can be described thus: Selectivity interaction (KinomeScan (DiscoverX)) EUB0000229b CDK18. To be noted: at 10 µM.
Chain of Cyclin-dependent kinase 18 (Homo sapiens) (Q07002 whole entry): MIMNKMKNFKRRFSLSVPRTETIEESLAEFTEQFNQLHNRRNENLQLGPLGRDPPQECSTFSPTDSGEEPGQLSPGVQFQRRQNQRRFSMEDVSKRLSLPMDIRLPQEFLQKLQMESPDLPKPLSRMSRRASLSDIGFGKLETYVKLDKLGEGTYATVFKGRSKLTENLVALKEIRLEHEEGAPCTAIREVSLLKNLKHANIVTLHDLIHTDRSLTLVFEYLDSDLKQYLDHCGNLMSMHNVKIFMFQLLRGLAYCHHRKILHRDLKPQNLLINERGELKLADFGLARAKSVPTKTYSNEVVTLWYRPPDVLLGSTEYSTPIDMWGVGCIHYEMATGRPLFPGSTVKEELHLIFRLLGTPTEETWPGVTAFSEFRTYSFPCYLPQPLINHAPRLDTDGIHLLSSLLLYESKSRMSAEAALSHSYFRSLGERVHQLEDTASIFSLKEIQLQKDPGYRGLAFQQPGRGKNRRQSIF
Assay [12] has as its target Mitogen-activated protein kinase kinase kinase 11 (Homo sapiens) (UniProt Q16584). Description: Selectivity interaction (KinomeScan (DiscoverX)) EUB0000595a MAP3K11. The conditions noted are these: at 10 µM.
Assay [13] concerns the target Casein kinase I isoform alpha (Homo sapiens, UniProt P48729). Description: Selectivity interaction (Kinase panel (KiNativ target engagement assay in Jurkat cells)) EUB0001635a CSNK1A1. In kind it is cell-based. The conditions noted are these: Selectivity number of off-targets 0.0, Selectivity number of targets 233.0, Source Knowledge https://www.sciencedirect.com/science/article/pii/S2451945619300674?via%3Dihub, at 1 µM.

Chain of Serine/threonine-protein kinase 10 (Homo sapiens) (O94804 whole entry, looked up): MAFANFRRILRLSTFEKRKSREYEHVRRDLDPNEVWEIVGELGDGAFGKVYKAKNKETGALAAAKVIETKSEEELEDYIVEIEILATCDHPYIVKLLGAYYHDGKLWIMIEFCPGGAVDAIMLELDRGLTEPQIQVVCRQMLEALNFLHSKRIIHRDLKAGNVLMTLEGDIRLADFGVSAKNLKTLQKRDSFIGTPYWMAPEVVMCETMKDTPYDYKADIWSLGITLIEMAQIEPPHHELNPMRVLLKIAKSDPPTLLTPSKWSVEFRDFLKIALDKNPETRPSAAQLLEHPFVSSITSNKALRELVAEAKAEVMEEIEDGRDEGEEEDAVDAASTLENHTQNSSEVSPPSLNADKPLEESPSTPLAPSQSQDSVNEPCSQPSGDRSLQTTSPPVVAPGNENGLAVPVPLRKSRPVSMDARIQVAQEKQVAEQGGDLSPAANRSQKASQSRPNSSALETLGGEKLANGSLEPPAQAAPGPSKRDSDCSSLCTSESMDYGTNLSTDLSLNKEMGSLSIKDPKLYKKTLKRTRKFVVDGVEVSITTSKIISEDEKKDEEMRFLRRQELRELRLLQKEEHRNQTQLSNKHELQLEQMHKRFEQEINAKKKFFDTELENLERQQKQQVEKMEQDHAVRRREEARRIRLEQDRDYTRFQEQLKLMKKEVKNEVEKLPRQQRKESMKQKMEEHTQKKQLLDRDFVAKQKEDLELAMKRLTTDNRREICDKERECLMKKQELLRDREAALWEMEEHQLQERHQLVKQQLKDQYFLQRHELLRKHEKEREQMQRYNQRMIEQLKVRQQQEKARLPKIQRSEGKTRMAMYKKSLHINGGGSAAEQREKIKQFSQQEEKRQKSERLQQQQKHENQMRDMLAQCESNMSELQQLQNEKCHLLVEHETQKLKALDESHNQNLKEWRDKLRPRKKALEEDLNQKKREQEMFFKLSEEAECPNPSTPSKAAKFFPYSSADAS
Chain of Casein kinase I isoform alpha (P48729 2-337 limits assumed): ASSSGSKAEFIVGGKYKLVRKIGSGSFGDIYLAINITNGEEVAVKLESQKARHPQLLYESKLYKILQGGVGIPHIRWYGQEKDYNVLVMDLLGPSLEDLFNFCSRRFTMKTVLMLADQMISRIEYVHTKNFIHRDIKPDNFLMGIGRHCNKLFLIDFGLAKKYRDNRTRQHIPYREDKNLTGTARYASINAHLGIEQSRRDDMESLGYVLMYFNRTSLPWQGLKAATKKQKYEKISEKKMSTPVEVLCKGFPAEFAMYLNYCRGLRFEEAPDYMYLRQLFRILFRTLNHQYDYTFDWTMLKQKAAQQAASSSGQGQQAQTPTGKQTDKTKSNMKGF
Chain of Mitogen-activated protein kinase kinase kinase 11 (Homo sapiens) (Q16584 whole entry, looked up, canonical isoform): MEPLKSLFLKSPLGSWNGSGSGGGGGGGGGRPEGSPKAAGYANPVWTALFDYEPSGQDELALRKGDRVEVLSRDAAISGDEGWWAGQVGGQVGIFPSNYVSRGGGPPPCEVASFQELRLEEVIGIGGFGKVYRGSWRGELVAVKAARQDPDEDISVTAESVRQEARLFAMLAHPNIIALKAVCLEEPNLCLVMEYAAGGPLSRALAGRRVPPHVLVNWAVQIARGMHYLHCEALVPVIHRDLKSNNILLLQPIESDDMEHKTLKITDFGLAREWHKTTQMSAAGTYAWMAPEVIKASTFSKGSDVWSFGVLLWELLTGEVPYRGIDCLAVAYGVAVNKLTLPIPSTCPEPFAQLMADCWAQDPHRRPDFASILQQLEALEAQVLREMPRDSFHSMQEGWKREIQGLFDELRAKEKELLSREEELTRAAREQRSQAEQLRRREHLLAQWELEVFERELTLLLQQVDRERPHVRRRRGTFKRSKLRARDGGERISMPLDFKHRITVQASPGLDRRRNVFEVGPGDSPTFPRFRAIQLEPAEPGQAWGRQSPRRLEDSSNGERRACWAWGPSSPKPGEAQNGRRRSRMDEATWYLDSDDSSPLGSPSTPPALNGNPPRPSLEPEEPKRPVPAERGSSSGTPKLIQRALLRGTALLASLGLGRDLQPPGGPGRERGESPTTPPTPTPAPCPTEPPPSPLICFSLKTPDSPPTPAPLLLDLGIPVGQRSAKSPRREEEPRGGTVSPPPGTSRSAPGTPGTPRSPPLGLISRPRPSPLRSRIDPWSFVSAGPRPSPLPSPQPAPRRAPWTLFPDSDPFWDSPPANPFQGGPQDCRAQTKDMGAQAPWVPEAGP

For the compound `CCn1c(-c2nc3cc(C(=O)N4CCCC(N)C4)ccc3n2C)cc2ccccc21` (stereo not drawn), the pXC50 in [1] was found to be 5.6 M.
For `Cc1cc([C@@H](C)Nc2ccccc2C(=O)O)c2nc(N3CCOCC3)cc(=O)n2c1` [AZD-6482], the % of control in assay [2] stood at 100%.
`CCC(=O)N1CCN(c2ccc(-n3c(=O)ccc4cnc5ccc(-c6cnc7ccccc7c6)cc5c43)cc2C(F)(F)F)CC1` returned a % of control in [3] of 100%.
Consider `CN(C)CCOc1ccc(-c2nc(-c3ccncc3)c(-c3ccc4c(c3)CC/C4=N\O)[nH]2)cc1`, for which, in assay [4], the % of control is 98%.
Take `Cc1cc(F)c(C(=O)Nc2cccc(-c3nncn3C(C)C)n2)cc1-n1cnc(C2CC2)c1`: the % of control amounted to 90% in assay [5] and 86% in assay [6].
`C=CC(=O)Nc1cc(-n2c(=O)ccc3cnc4ccc(-c5ccc(NS(C)(=O)=O)cc5)cc4c32)ccc1C`: the % of control was 100% in [7] (at 1 µM) and 24% in assay [7] (at 10 µM).
As to `Cn1cc(-n2cnc3c(NCc4nc5cc(Cl)c(Cl)cc5[nH]4)nc(N4CCOCC4)nc32)cn1`, the % of control in [8] came to 3.94%.
For `CC[C@@H]1[C@H](F)C(=O)N[C@@H]1COc1nccc2cc(C(N)=O)c(OC)cc12` [ZIMLOVISERTIB], the % of inhibition in assay [9] came out at 2.36%; in assay [10] (at 0.01 µM) it was 6.3%; in [10] (at 0.04 µM), 19.8%; in assay [10] (at 0.2 µM), 55.9%; in assay [10] (at 1 µM), 83.6%; in assay [10] (at 5 µM), 93.9%.
In turn, `COc1cc(N(C)c2ccnc3ccc(C(F)(F)F)cc23)cc(OC)c1OC` showed a % binding in [11] of 91%.
For the compound `COCC(=O)NC/C=C/c1ccc2ncnc(Nc3ccc(Oc4ccc(C)nc4)c(C)c3)c2c1` [CP-724714], in assay [12], the % of control stood at 92%.
As for `C=CC(=O)Nc1ccc(C(=O)Nc2[nH]nc3c2CN(C(=O)N[C@H](CN(C)C)c2ccccc2)C3(C)C)cc1`, in assay [13], the % of engagement is -2%.

The record behind these values is ChEMBL document CHEMBL5465560, “Selectivity Literature for EUbOPEN Chemogenomic Library” (2024).
